Measurements published in patent US20240216357A1 (SICHUAN HUIYU PHARMACEUTICAL CO., LTD., priority 2021, published 2024).
Structures can show the parent of a compound that is named as a salt. Where two headings read alike, the source gives them in different places.

Experiments:
LSD1 = LSD1 (Homo sapiens (Human), UniProt O60341); experiment: LSD1 enzyme activity detection (HTRF); type: biochemical; settings: read-out: Inhibition of enzymatic activity of LSD1 IC50
NCI-H1417 cells = experiment: In vitro cell proliferation detection (CellTiter-Glo, 7 days); type: cell-based; settings: Homo sapiens
[1] = 168 h, NCI-H1417 cells, 7 days, CellTiter-Glo, read-out: NCI-H1417 proliferation inhibition IC50

| IC50 (NCI-H1417 cells; [1]) [nM] | IC50 (LSD1; HTRF, H3K4me1 substrate) [nM] | Structure (SMILES) | IC50 (LSD1) [nM] | IC50 (NCI-H1417 cells; NCI-H1417, 168 h, read-out: NCI-H1417 proliferation inhibition IC50(nM)) [nM] |
| --- | --- | --- | --- | --- |
| 10 ± 2.9 | 2.3 ± 0.7 | CNC1CCN(c2cc(O)c(-c3ccc(OC)c(F)c3)c(-c3ccc(C#N)c(F)c3)n2)CC1 [Example 55, 2-fluoro-4-(3-(3-fluoro-4-methoxyphenyl)-4-hydroxy-6-(4-(methylamino)piperidin-1-yl)pyridin-2-yl)benzonitrile] | – | – |
| 4.88 | 2.9 ± 1.2 | COc1ccc(-c2c(O)cc(N3CCC(N(C)C)CC3)nc2-c2ccc(C#N)c(F)c2)cc1F [Example 56, 4-(6-(4-(dimethylamino)piperidin-1-yl)-3-(3-fluoro-4-methoxyphenyl)-4-hydroxypyridin-2-yl)-2-fluorobenzonitrile] | – | – |
| 7.26 | 1.3 ± 0.4 | N#Cc1ccc(-c2nc(N3CCC(N)CC3)cc(O)c2-c2ccc(F)c(O)c2)cc1F [Example 58, 4-(6-(4-aminopiperidin-1-yl)-3-(4-fluoro-3-hydroxyphenyl)-4-hydroxypyridin-2-yl)-2-fluorobenzonitrile] | – | – |
| 2.35 | 0.7 ± 0.3 | N#Cc1ccc(-c2nc(N3CCC(N)CC3)cc(O)c2-c2ccc(Cl)c(O)c2)cc1F [Example 59, 4-(6-(4-aminopiperidin-1-yl)-3-(4-chloro-3-hydroxyphenyl)-4-hydroxypyridin-2-yl)-2-fluorobenzonitrile] | – | – |
| 0.49 | 0.4 ± 0.2 | Cc1ccc(-c2c(O)cc(N3CCC(N)CC3)nc2-c2ccc(C#N)c(F)c2)cc1O [Example 60] | – | – |
| 387 | 26.4 | CN(CCCN)c1cc(O)c(-c2ccc(Cl)c(O)c2)c(-c2ccc(C#N)c(F)c2)n1 [Example 61, 4-(6-((3-aminopropyl)(methyl)amino)-3-(4-chloro-3-hydroxyphenyl)-4-hydroxypyridin-2-yl)-2-fluorobenzonitrile] | – | – |
| 224 | 21 | COc1ccc(-c2c(O)cc(N(C)CCCN)nc2-c2ccc(C#N)c(F)c2)cc1O [Example 62] | – | – |
| 192 | 5.1 ± 0.4 | Cc1ccc(-c2c(O)cc(N(C)CCCN)nc2-c2ccc(C#N)c(F)c2)cc1O [Example 63, 4-(6-((3-aminopropyl)(methyl)amino)-4-hydroxy-3-(3-hydroxy-4-methylphenyl)pyridin-2-yl)-2-fluorobenzonitrile hydrochloride] | – | – |
| 0.95 | 0.7 ± 0.4 | Cc1ccc(-c2c(-c3ccc(C#N)c(F)c3)nc(N3CCC(N)CC3)c(C)c2O)cc1O [Example 65, 4-(6-(4-aminopiperidin-1-yl)-4-hydroxy-3-(3-hydroxy-4-methylphenyl)-5-methylpyridin-2-yl)-2-fluorobenzonitrile hydrochloride] | – | – |
| 0.2 | 0.2 ± 0.1 | Cc1ccc(-c2cnc(N3CCC(N)CC3)c(C#N)c2-c2ccc(C#N)c(F)c2)cc1O [Example 67, 2-(4-aminopiperidin-1-yl)-4-(4-cyano-3-fluorophenyl)-5-(3-hydroxy-4-methylphenyl) nicotinonitrile hydrochloride] | – | – |
| 6.92 | 3.4 ± 1.3 | COc1ccc(-c2cnc(N3CCC(N)CC3)c(C#N)c2-c2ccc(C#N)c(F)c2)cc1F [Example 68, 2-(4-aminopiperidin-1-yl)-4-(4-cyano-3-fluorophenyl)-5-(3-fluoro-4-methoxyphenyl) nicotinonitrile hydrochloride] | – | – |
| 8.41 | 3.9 ± 2.7 | COc1ccc(-c2cnc(N3CCC(N)CC3)c(C#N)c2-c2ccc(C#N)c(F)c2)cc1 [Example 69, 2-(4-aminopiperidin-1-yl)-4-(4-cyano-3-fluorophenyl)-5-(4-methoxyphenyl) nicotinonitrile hydrochloride] | – | – |
| 12.2 | 6.6 ± 1 | Cc1ccc(-c2cnc(N3CCC(N)CC3)c(C#N)c2-c2ccc(C#N)c(F)c2)cc1F [Example 72, 2-(4-aminopiperidin-1-yl)-4-(4-cyano-3-fluorophenyl)-5-(3-fluoro-4-methylphenyl) nicotinitrile] | – | – |
| 1.37 | 4.9 ± 2.5 | COc1ccc(-c2cnc(N3CC4CCC3CC4N)c(C#N)c2-c2ccc(C#N)c(F)c2)cc1O (stereo not shown) [Example 76, 2-(5-amino-2-azabicyclo[2.2.2]octane-2-yl)-4-(4-cyano-3-fluorophenyl)-5-(3-hydroxy-4-methoxyphenyl) nicotinonitrile] | – | – |
| 2.19 | 2.4 ± 0.9 | COc1ccc(-c2cnc(N3CCC(N)C(F)C3)c(C#N)c2-c2ccc(C#N)c(F)c2)cc1O (stereo not shown) [Example 77, 2-(4-amino-3-fluoropiperidin-1-yl)-4-(4-cyano-3-fluorophenyl)-5-(3-hydroxy-4-methoxyphenyl) nicotinonitrile] | – | – |
| 2.53 | 1.6 ± 0.3 | COc1ccc(-c2cnc(N3CCC[C@@H](N)C3)c(C#N)c2-c2ccc(C#N)c(F)c2)cc1O [Example 78, (R)-2-(3-aminopiperidin-1-yl)-4-(4-cyano-3-f1uorophenyl)-5-(3-hydroxy-4-methoxyphenyl) nicotinonitrile] | – | – |

| IC50 (NCI-H1417 cells; [1]) [nM] | IC50 (LSD1; HTRF, H3K4me1 substrate) [nM] | Structure (SMILES) | IC50 (LSD1) [nM] | IC50 (NCI-H1417 cells; NCI-H1417, 168 h, read-out: NCI-H1417 proliferation inhibition IC50(nM)) [nM] |
| --- | --- | --- | --- | --- |
| 72.4 | 12.9 ± 0.2 | COc1ccc(-c2cnc(N3CC(N)C3)c(C#N)c2-c2ccc(C#N)c(F)c2)cc1O [Example 82, 2-(3-aminoazetidin-1-yl)-4-(4-cyano-3-fluorophenyl)-5-(3-hydroxy-4-methoxyphenyl) nicotinonitrile] | – | – |
| 630 | 35.4 | Cn1ccc(-c2cnc(N3CCC(N)CC3)c(C#N)c2-c2ccc(C#N)c(F)c2)cc1=O [Example 83, 6-(4-aminopiperidin-1-yl)-4-(4-cyano-3-fluorophenyl)-1′-methyl-2′-oxo-1′,2′-dihydro-[3,4′-bipyridine]-5-carbonitrile hydrochloride] | – | – |
| 4.91 | 2.18 | Cn1cc2cc(-c3cnc(N4CCC(N)CC4)c(C#N)c3-c3ccc(C#N)c(F)c3)ccc2n1 [Example 84, 2-(4-aminopiperidin-1-yl)-4-(4-cyano-3-fluorophenyl)-5-(2-methyl-2H-indazol-5-yl) nicotinonitrile hydrochloride] | – | – |
| 0.76 | 0.6 | N#Cc1ccc(-c2c(-c3ccc(N4CCOCC4)c(O)c3)cnc(N3CCC(N)CC3)c2C#N)cc1F [Example 85, 2-(4-aminopiperidin-1-yl)-4-(4-cyano-3-fluorophenyl)-5-(3-hydroxy-4-morpholinophenyl) nicotinonitrile hydrochloride] | – | – |
| 0.63 | 0.147 | CC(C)(O)COc1ccc(-c2cnc(N3CCC(N)CC3)c(C#N)c2-c2ccc(C#N)c(F)c2)cc1O [Example 86, hydrochloride] | – | – |
| 1.82 | 1.1 ± 0.3 | COc1cc(N2CCC(N)CC2)nc(-c2ccc(C#N)c(F)c2)c1-c1ccc(F)c(O)c1 [Example 91, 4-(6-(4-aminopiperidin-1-yl)-3-(4-fluoro-3-hydroxyphenyl)-4-methoxypyridin-2-yl)-2-fluorobenzonitrile] | – | – |
| 30.7 | 153 | COc1ccc(-c2c(OC)cc(N3CCC(N)CC3)nc2-c2ccc(C#N)c(F)c2)cc1C#N [Example 93, 4-(6-(4-aminopiperidin-1-yl)-3-(3-cyano-4-methoxyphenyl)-4-methoxypyridin-2-yl)-2-fluorobenzonitrile] | – | – |
| 104 | 24.9 | COc1cc(N2CCC(N)CC2)nc(-c2ccc(C#N)c(F)c2)c1-c1ccc(C#N)c(F)c1 [Example 94, 4,4′-(6-(4-aminopiperidin-1-yl)-4-methoxypyridin-2,3-diyl)bis(2-fluorobenzonitrile)] | – | – |
| 11.8 | 3 ± 0.6 | COc1ccc(-c2c(OC)cc(N3CCNCC3)nc2-c2ccc(C#N)c(F)c2)cc1O [Example 96, 2-fluoro-4-(3-(3-hydroxy-4-methoxyphenyl)-4-methoxy-6-(piperazinyl)pyridin-2-yl)benzonitrile hydrochloride] | – | – |
| 185 | 88.5 | COc1cc(-c2c(OC)cc(N3CCC(N)CC3)nc2-c2ccc(C#N)c(F)c2)ccc1O [Example 97, 4-(6-(4-aminopiperidin-1-yl)-3-(4-hydroxy-4-methoxyphenyl)-4-methoxypyridin-2-yl)-2-fluorobenzonitrile] | – | – |
| 1.72 | 4.9 ± 1.2 | COc1cc(N2CCC(N)CC2)nc(-c2ccc(C#N)c(F)c2)c1-c1ccc(C(F)(F)F)c(O)c1 [Example 99, 4-(6-(4-aminopiperidin-1-yl)-3-(3-hydroxy-4-(trifluoromethyl)phenyl)-4-methoxypyridin-2-yl)-2-fluorobenzonitrile hydrochloride] | – | – |
| 3.18 | 8.9 ± 0.3 | COc1cc(N2CCN(C)CC2)nc(-c2ccc(C#N)c(F)c2)c1-c1ccc(C)c(O)c1 [Example 100, 2-fluoro-4-(3-(3-hydroxy-4-methylphenyl)-4-methoxy-6-(4-methylpiperazin-1-yl)pyridin-2-yl) benzonitrile] | – | – |
| 0.917 | 1 ± 0.2 | COc1ccc(-c2c(-c3ccc(C#N)c(F)c3)nc(N3CCC(N)CC3)c(C)c2OC)cc1O [Example 101, 4-(6-(4-aminopiperidin-1-yl)-3-(3-hydroxy-4-methoxyphenyl)-4-methoxy-5-methylpyridin-2-yl)-2-fluorobenzonitrile] | – | – |
| – | – | CCOc1cc(N2CCC(N)CC2)nc(-c2ccc(C#N)c(F)c2)c1-c1ccc(OC)c(O)c1 [Example 103, 4-(6-(4-aminopiperidin-1-yl)-4-ethoxy-3-(3-hydroxy-4-methoxyphenyl)pyridin-2-yl)-2-fluorobe nzonitrile] | 0.6 ± 0.2 | 6.27 |
| 0.594 | 1.2 ± 0.7 | COc1ccc(-c2c(OC(F)F)cc(N3CCC(N)CC3)nc2-c2ccc(C#N)c(F)c2)cc1O [Example 106, 4-(6-(4-aminopiperidin-1-yl)-4-(difluoromethoxy)-3-(3-hydroxy-4-methoxyphenyl)pyridin-2-yl)-2-fluorobenzonitrile] | – | – |

| Structure (SMILES) | IC50 (NCI-H1417 cells; [1]) [nM] | IC50 (LSD1; HTRF, H3K4me1 substrate) [nM] | IC50 (LSD1) [nM] | IC50 (NCI-H1417 cells; NCI-H1417, 168 h, read-out: NCI-H1417 proliferation inhibition IC50(nM)) [nM] |
| --- | --- | --- | --- | --- |
| COc1ccc(-c2c(O)cc(N3CC4CNCC4C3)nc2-c2ccc(C#N)c(F)c2)cc1F (stereo not shown) [Example 52, 2-fluoro-4-(3-(3-fluoro-4-methoxyphenyl)-6-(hexahydropyrrolo[3,4-c]pyrrole-2(1H)-yl)-4-hydroxypyridin-2-yl)benzonitrile hydrochloride] | 167 | – | 100 | – |
